Measurements from patent US20010047099A1, “4-aminopicolinates and their use as herbicides” (priority 2000, published 2001).

Experiments:
Type in all cases: in vivo
[1] = test system: morningglory (Ipomoea hederacea); test: Preemergence herbicidal activity; conditions: Table 6 (headed Post-emergent; text: preemergence), after 3 weeks; for pest or weed control at 280 ppm: rate 280 ppm
From the text: (§1) Seeds of the desired test plant species were planted in a soil matrix prepared by mixing a loam soil (43 percent silt, 19 percent clay, and 38 percent sand, with a pH of about 8.1 and an organic matter content of bout 1.5 percent) and sand in a 70 to 30 ratio. The soil matrix was contained in plastic pots with a surface area of 113 square centimeters. When required to ensure good germination and healthy plants. a fungicide treatment and/or other chemical or physical treatment was applied.
(§2) A weighed amount, determined by the highest rate to be tested, of each test compound was placed in a 20 mL glass vial and was dissolved in 4 mL of a 97:3 v/v (volume/volume) mixture of acetone and dimethyl sulfoxide to obtain concentrated stock solutions. […] The stock solutions obtained were diluted with a 99.9:0.1 mixture of water and Tween® […] surfactant to obtain application solutions of known concentration. The solutions containing the highest concentration to be tested were prepared by diluting 2 mL aliquots of the stock solution with 15 mL of the mixture and lower concentrations were prepared by serial dilution of the stock solution. A 2.5 mL aliquot of each solution of known concentration was sprayed evenly onto the soil surface (113 sq. cm) of each seeded pot using a Cornwall 5.0 mL glass syringe fitted with a TeeJet TN-3 hollow cone nozzle to obtain thorough coverage of the soil in each pot. Control pots were sprayed in the same manner with the aqueous mixture.
(§3) The treated pots and control pots were placed in a greenhouse maintained with an approximate 15 hr photoperiod and temperatures of about 23-29° C. during the day and 22-28° C. during the night. Nutrients and water were added on a regular basis and supplemental lighting was provided with overhead metal halide 1000-Watt lamps as necessary. The water was added by top-irrigation. After 3 weeks the condition of the test plants that germinated and grew as compared with that of the untreated plants that germinated and grew was determined visually and scored on a scale of 0 to 100 percent where 0 corresponds to no injury and 100 corresponds to complete kill or no germination.

[2] = test system: pigweed (Amaranthus retroflexus); test: Preemergence herbicidal activity; conditions: Table 6 (headed Post-emergent; text: preemergence), after 3 weeks; for pest or weed control at 280 ppm: rate 280 ppm
From the text: as §1, §2, §3

[3] = test system: velvetleaf (Abutilon theophrasti); test: Preemergence herbicidal activity; conditions: Table 6 (headed Post-emergent; text: preemergence), after 3 weeks; for pest or weed control at 280 ppm: rate 280 ppm
From the text: as §1, §2, §3

[4] = test system: chickweed (Stellaria media); test: Postemergence herbicidal activity; conditions: Table 1, visual, after 2 weeks
Protocol: (§4) Seeds of the desired test plant species were planted in Grace-Sierra MetroMix® 306 planting mixture, which typically has a pH of 6.0 to 6.8 and an organic matter content of about 30 percent, in plastic pots with a surface area of 64 square centimeters. When required to ensure good germination and healthy plants, a fungicide treatment and/or other chemical or physical treatment was applied. The plants were grown for 7-21 days in a greenhouse with an approximate 15 hr photoperiod which was maintained at about 23-29° C. during the day and 22-28° C. during the night. Nutrients and water were added on a regular basis and supplemental lighting was provided with overhead metal halide 1000-Watt lamps as necessary. The plants were employed for testing when they reached the first or second true leaf stage.
(§5) A weighed amount, determined by the highest rate to be tested, of each test compound was placed in a 20 mL glass vial and was dissolved in 4 mL of a 97:3 v/v (volume/volume) mixture of acetone and dimethyl sulfoxide (DMSO) to obtain concentrated stock solutions. […] The concentrated stock solutions obtained were diluted with an aqueous mixture containing acetone, water, isopropyl alcohol, DMSO, Atplus 411F crop oil concentrate, and Triton X-155 surfactant in a 48.5:39:10:1.5:1.0:0.02 v/v ratio to obtain spray solutions of known concentration. The solutions containing the highest concentration to be tested were prepared by diluting 2 mL aliquots of the stock solution with 13 mL of the mixture and lower concentrations were prepared by serial dilution of the stock solution. Approximately 1.5 mL aliquots of each solution of known concentration were sprayed evenly onto each of the test plant pots using a DeVilbiss atomizer driven by compressed air pressure of 2 to 4 psi ([…]) to obtain thorough coverage of each plant. Control plants were sprayed in the same manner with the aqueous mixture. In this test an application rate of 1 ppm results in the application of approximately 1 g/Ha.
(§6) The treated plants and control plants were placed in a greenhouse as described above and watered by sub-irrigation to prevent wash-off of the test compounds. After 2 weeks the condition of the test plants as compared with that of the untreated plants was determined visually and scored on a scale of 0 to 100 percent where 0 corresponds to no injury and 100 corresponds to complete kill.

[5] = test system: cocklebur (Xanthium strumarium); test: Postemergence herbicidal activity; conditions: Table 1, visual, after 2 weeks
Protocol: as §4, §5, §6

[6] = test system: wild buckwheat (Polygonum convolvulus); test: Postemergence herbicidal activity; conditions: Table 1, visual, after 2 weeks
Protocol: as §4, §5, §6

[7] = Ipomoea, 504 h, read-out: % Control IPOHE
[8] = Amaranthus retroflexus, 504 h, read-out: % Control AMARE
[9] = Abutilon theophrasti, 504 h, read-out: % Control ABUTH
[10] = Stellaria media, post-emergence, 336 h, rate 250 ppm, read-out: Post-emergent % Control STEME
[11] = Xanthium strumarium, post-emergence, 336 h, rate 250 ppm, read-out: Post-emergent % Control XANST
[12] = Fallopia convolvulus, post-emergence, 336 h, rate 250 ppm, read-out: Post-emergent % Control POLCO

| Compound | % Control IPOHE ([1]; rate 560 ppm) [%] | % Control AMARE ([2]; rate 560 ppm) [%] | % Control ABUTH ([3]; rate 560 ppm) [%] | Post-emergent % Control STEME ([4]; rate 250 ppm) [%] | Post-emergent % Control XANST ([5]; rate 250 ppm) [%] | Post-emergent % Control POLCO ([6]; rate 250 ppm) [%] | further results |
| --- | --- | --- | --- | --- | --- | --- | --- |
| CCCCOCCOC(=O)c1nc(Cl)cc(N)c1Cl [Compound 10, butoxyethyl 4-amino-3,6-dichloropyridine-2-carboxylate] |  |  |  |  |  |  | pest or weed control at 280 ppm [1, 7]: 100%; pest or weed control at 280 ppm [2, 8]: 100%; pest or weed control at 280 ppm [3, 9]: 100%; pest or weed control at 125 ppm ([4]; Stellaria media, post-emergence, 336 h, rate 125 ppm, read-out: Post-emergent % Control STEME): 50%; pest or weed control at 125 ppm ([5]; Xanthium strumarium, post-emergence, 336 h, rate 125 ppm, read-out: Post-emergent % Control XANST): 90%; pest or weed control at 125 ppm ([6]; Fallopia convolvulus, post-emergence, 336 h, rate 125 ppm, read-out: Post-emergent % Control POLCO): 100% |
| COC(=O)c1nc(Cl)cc(NC(C)=O)c1Cl [Compound 12, Methyl N-acetyl 4-amino-3,6-dichloropyridine-2-carboxylate] | 100 | 100 | 95 |  |  |  | Post-emergent % Control STEME ([4]; rate 125 ppm): 30%; Post-emergent % Control XANST ([5]; rate 125 ppm): 90%; Post-emergent % Control POLCO ([6]; rate 125 ppm): 100% |
| Nc1c(F)c(Br)nc(C(=O)O)c1F [Compound 16, 4-Amino-3,5-difluoro-6-bromopyridine-2-carboxylic acid] |  |  |  |  |  |  | pest or weed control at 560 ppm ([1]; Ipomoea, 504 h, rate 560 ppm, read-out: % Control IPOHE): 80%; pest or weed control at 560 ppm ([2]; Amaranthus retroflexus, 504 h, rate 560 ppm, read-out: % Control AMARE): 70%; pest or weed control at 560 ppm ([3]; Abutilon theophrasti, 504 h, rate 560 ppm, read-out: % Control ABUTH): 0%; pest or weed control at 250 ppm [4, 10]: 30%; pest or weed control at 250 ppm [5, 11]: 60%; pest or weed control at 250 ppm [6, 12]: 70% |
| COC(=O)c1nc(Br)c(Br)c(N)c1Br [Compound 18, Methyl 4-amino-3,5,6-tribromopyridine-2-carboxylate] |  |  |  |  |  |  | pest or weed control at 280 ppm [1, 7]: 30%; pest or weed control at 280 ppm [2, 8]: 80%; pest or weed control at 280 ppm [3, 9]: 98%; pest or weed control at 250 ppm [4, 10]: 90%; pest or weed control at 250 ppm [5, 11]: 85%; pest or weed control at 250 ppm [6, 12]: 75% |
| Nc1c(Cl)c(C(=O)O)nc(Cl)c1Sc1ccccc1 [Compound 24, 4-Amino-3,6-dichloro-5-phenylthiopyridine-2-carboxylate] | 30 | 20 | 50 | 50 | 60 | 50 |  |
| CC(C)Nc1cc(Cl)nc(C(=O)O)c1Cl [Compound 28, 4-N-isopropylamino-3,6-dichloropyridine-2-carboxylic acid] | 100 | 100 | 100 | 90 | 95 | 95 |  |
| C=CCNc1cc(Cl)nc(C(=O)O)c1Cl [Compound 30, 4-N-allylamino-3,6-dichloropyridine-2-carboxylic acid] | 85 | 90 | 95 | 80 | 100 | 100 |  |
| O=C(O)c1nc(Cl)cc(NCCO)c1Cl [Compound 31, 4-N-hydroxyethylamino-3,6-dichloropyridine-2-carboxylic acid] | 100 | 95 | 95 | 30 | 40 | 70 |  |
| COCCNc1cc(Cl)nc(C(=O)O)c1Cl [Compound 32, 4-N-methoxyethylamino-3,6-dichloropyridine-2-carboxylic acid] | 90 | 70 | 90 | 20 | 80 | 100 |  |
| CN(O)c1cc(Cl)nc(C(=O)O)c1Cl [Compound 34, 4-N-hydroxy-N-methyl-amino-3,6-dichloropyridine-2-carboxylic acid] | 95 | 100 | 100 |  |  |  | Post-emergent % Control STEME ([4]; rate 125 ppm): 70%; Post-emergent % Control XANST ([5]; rate 125 ppm): 100%; Post-emergent % Control POLCO ([6]; rate 125 ppm): 100% |
| CON(C)c1cc(Cl)nc(C(=O)O)c1Cl [Compound 35, 4-N-methoxy-N-methyl-3,6-dichloropyridine-2-carboxylic acid] | 85 | 95 | 90 |  |  |  | Post-emergent % Control STEME ([4]; rate 125 ppm): 60%; Post-emergent % Control XANST ([5]; rate 125 ppm): 90%; Post-emergent % Control POLCO ([6]; rate 125 ppm): 100% |
| O=C(O)c1nc(Cl)cc(-n2cccc2)c1Cl [Compound 37, 4-pyrrolo-3,6-Dichloropyridine-2-carboxylic acid] | 95 | 100 | 100 |  |  |  | Post-emergent % Control STEME ([4]; rate 125 ppm): 70%; Post-emergent % Control XANST ([5]; rate 125 ppm): 90%; Post-emergent % Control POLCO ([6]; rate 125 ppm): 90% |
| CN(C)C=Nc1cc(Cl)nc(C(=O)O)c1Cl [Compound 40, 4-N,N-Dimethylformamidino-3,6-dichloropyridine-2-carboxylic acid] | 100 | 100 | 100 | 90 | 100 | 100 |  |
| Nc1cc(Oc2ccc(Cl)c(Cl)c2)nc(C(=O)O)c1Cl [Compound 51, 4-amino-3-chloro-6-(3,4-dichlorophenoxy)-pyridine-2-carboxylic acid] |  |  |  |  |  |  | pest or weed control at 280 ppm [1, 7]: 0%; pest or weed control at 280 ppm [2, 8]: 98%; pest or weed control at 280 ppm [3, 9]: 80%; pest or weed control at 250 ppm [4, 10]: 70%; pest or weed control at 250 ppm [5, 11]: 100%; pest or weed control at 250 ppm [6, 12]: 100% |
| Nc1c(F)c(Oc2ccc(Cl)c(Cl)c2)nc(C(=O)O)c1Cl [Compound 55, 4-Amino-3-chloro-5-fluoro-6-(3,4-dichlorophenoxy)pyridine-2-carboxylic acid] |  |  |  |  |  |  | pest or weed control at 250 ppm ([1]; Ipomoea, 504 h, rate 250 ppm, read-out: % Control IPOHE): 100%; pest or weed control at 250 ppm ([2]; Amaranthus retroflexus, 504 h, rate 250 ppm, read-out: % Control AMARE): 95%; pest or weed control at 250 ppm ([3]; Abutilon theophrasti, 504 h, rate 250 ppm, read-out: % Control ABUTH): 100%; pest or weed control at 250 ppm [4, 10]: 95%; pest or weed control at 250 ppm [5, 11]: 100%; pest or weed control at 250 ppm [6, 12]: 100% |
